Changes are numbered by the printed parent chain. Values joined by “and” are separate entries in the source; they are usually repeats but may differ in a detail not shown here. Equal entries are not always repeated.
What was measured:
hTA1 I290Y = biological target: T1, hTA1 I290Y (Homo sapiens, UniProt Q96RJ0, I290Y); assay: GloSensor cAMP accumulation assay, I290Y mutant; type: cell-based; details: for Normalized Luminescence Counts for Concentration Response Curves: I120Y, log[Agonist], single replicates; for cAMP accumulation response, normalized (concentration-response source data, single replicate values): hTA1 I290Y (N=3), log[Compound];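 on cAMP accumulation response, normalized (concentration-response source data, single replicate values): normalized to the maximum response of β-PEA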
T1 construct: expressed in transfected cells; host or cells: HEK293T
T1 sequence (Q96RJ0 1-339 I290Y): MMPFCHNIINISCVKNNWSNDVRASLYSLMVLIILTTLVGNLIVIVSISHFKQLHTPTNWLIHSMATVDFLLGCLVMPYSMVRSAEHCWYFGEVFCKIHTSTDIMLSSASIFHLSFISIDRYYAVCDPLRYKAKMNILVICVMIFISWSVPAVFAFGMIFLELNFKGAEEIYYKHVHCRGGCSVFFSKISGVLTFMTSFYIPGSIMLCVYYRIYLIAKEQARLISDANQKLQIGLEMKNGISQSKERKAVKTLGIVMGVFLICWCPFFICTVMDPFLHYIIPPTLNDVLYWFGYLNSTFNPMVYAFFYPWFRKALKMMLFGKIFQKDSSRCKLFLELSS

hTA1 T194A = biological target: T2, hTA1 T194A (Homo sapiens, UniProt Q96RJ0, T194A); assay: GloSensor cAMP accumulation assay, T194A mutant; details: for cAMP accumulation response, individual replicate values of the concentration-response curve: hTA1 T194A, log[Agonist], Supplementary Figure 5 source data
T2 sequence (Q96RJ0 1-339 T194A): T1 sequence (Q96RJ0 1-339 I290Y) with T194A, Y290I

With `NCCc1ccccc1` [β-PEA, β-phenethylamine] the “Normalized Luminescence Counts for Concentration Response Curves” value (hTA1 I290Y; M -11) was 0.5824 (2×) and -1.264 and -5.506 and -5.14 and -3.674 and -1.828 (3×), the “Normalized Luminescence Counts for Concentration Response Curves” value (hTA1 I290Y; M -12) was 1.506 and -1.88 and -0.341 and -3.674 and -4.773 and 8.4185 and 1.556 (2×) and 2.684 and the “Span ± SEM (Emax normalized to β-PEA)” value (hTA1 I290Y; I290Y) was 100 ± 3.64. For the same molecule, the “pEC50 ± SEM” value (hTA1 I290Y; I290Y) was 6.43 ± 0.07, the “ΔEmax values (each mutant value - WT average)” value (hTA1 I290Y; I290Y minus WT average) was 0 and the “ΔpEC50 values (each mutant value - WT average), Mean” value (hTA1 I290Y; I290Y minus WT average) was -0.6326 and -0.5624 and -0.7969. The EC50 (hTA1 I290Y; I290Y, read-out: EC50) was 372 nM, the “pEC50 values, Mean” value (hTA1 I290Y; I290Y, single experiments (3 replicates each)) was 6.461 and 6.531 and 6.297 and the “Emax values, Mean” value (hTA1 I290Y; I290Y, single experiments (3 replicates each), β-PEA = 100) was 100. For the same molecule, the “cAMP accumulation response, normalized (concentration-response source data, single replicate values)” value (“cAMP accumulation response, normalized” below) (hTA1 I290Y; M = -5) was 106.77 and 91.3809 and 125.546 and 108.456 and 111.021 and 107.357 and 101.946 and 94.0497 and 113.225, the “cAMP accumulation response, normalized” value (hTA1 I290Y; M = -5.522) was 77.8381 and 72.2978 and 82.1471 and 73.6443 and 85.0039 and 85.3703 and 81.642 and 86.1539 and 57.9545 and the “cAMP accumulation response, normalized” value (hTA1 I290Y; M = -6) was 87.3796 and 52.2914 and 77.8381 and 75.4765 and 68.8807 and 65.9492 and 71.4902 and 68.1063 and 59.0825. The “cAMP accumulation response, normalized” value (hTA1 I290Y; M = -6.522) was 54.4459 and 35.6706 and 50.4446 and 60.0862 and 56.7882 and 48.7266 and 47.8027 and 37.651 (2×), the “cAMP accumulation response, normalized” value (hTA1 I290Y; M = -7) was 31.0537 and 19.6655 and 31.3615 and 25.6411 and 22.3431 and 26.3739 and 25.2433 and 15.0915 and 12.8355 and the “cAMP accumulation response, normalized” value (hTA1 I290Y; M = -7.522) was 12.5863 and 7.662 and 9.508 and 11.7164 and 13.1822 and 20.5109 and 7.196 and 4.9397 and 3.812. For the same molecule, the “cAMP accumulation response, normalized” value (hTA1 I290Y; M = -8) was 5.199 (2×) and 2.121 and 24.1753 and 3.655 and 1.823 and 1.556 and -1.828 and -0.7002, the “cAMP accumulation response, normalized” value (hTA1 I290Y; M = -8.522) was 0.8902 and -1.264 and -0.0332 and -1.109 and -1.842 and -4.04 and 0.4278 and -2.956 and -0.7002 and the “cAMP accumulation response, normalized” value (hTA1 I290Y; M = -9) was -0.341 (2×) and -2.496 and 2.189 and -2.575 and -4.773 and 0.4278 and -1.828 and -2.956. The “cAMP accumulation response, normalized” value (hTA1 I290Y; M = -9.522) was -0.9566 and -2.803 and -1.264 and -1.109 and -0.7424 and -1.475 and 0.4278 and -4.0841 and -0.7002, the “cAMP accumulation response, normalized” value (hTA1 I290Y; M = -10) was -0.0332 (2×) and -1.88 and -5.873 and -4.407 and -4.773 and 2.684 and -1.828 and -0.7002 and the “cAMP accumulation response, normalized” value (hTA1 I290Y; M = -10.522) was -0.6488. For the same molecule, the “pEC50 values, Mean” value (hTA1 T194A; T149A (so in the source), single experiments (3 replicates each)) was 7.395 and 7.196 and 7.094, the “Emax values, Mean” value (hTA1 T194A; T149A (so in the source), single experiments (3 replicates each), β-PEA = 100) was 100 and the EC50 (hTA1 T194A; T194A) was 63.6 nM. For the same molecule, the “Span ± SEM (Emax normalized to β-PEA)” value (hTA1 T194A; T194A) was 100 ± 2.46, the “pEC50 ± SEM” value (hTA1 T194A; T194A) was 7.23 ± 0.13 and the “cAMP accumulation response, individual replicate values of the concentration-response curve” value (hTA1 T194A; M = -7.522) was 32.1474 and 24.1931 and 33.6304 and 28.9237 and 30.7017 and 33.27 and 42.7604 and 43.2488 and 44.1811. For the same molecule, the “cAMP accumulation response, individual replicate values of the concentration-response curve” value (hTA1 T194A; M = -8) was 31.2036 and 13.6773 and 15.1603 and 14.8971 and 13.5142 and 22.7372 and 24.6907 and 22.9592, the “cAMP accumulation response, individual replicate values of the concentration-response curve” value (hTA1 T194A; M = -8.522) was 3.836 and 0.5999 and 3.97 and 8.1802 and 2.846 (2×) and 8.885 and 8.264 and 10.2172 and the “cAMP accumulation response, individual replicate values of the concentration-response curve” value (hTA1 T194A; M = -9) was 2.487 and 2.892 and 1.813 and 0.4755 and 2.056 and 3.424 and 1.293 (2×). The “cAMP accumulation response, individual replicate values of the concentration-response curve” value (hTA1 T194A; M = -9.522) was 1.678 and 0.1954 and 0.8695 and 0.08035 (2×) and -0.5123 and 0.3166 and -0.7046 and 0.139, the “cAMP accumulation response, individual replicate values of the concentration-response curve” value (hTA1 T194A; M = -10) was -0.6135 and -0.209 and 0.1954 and -0.5123 and -0.3148 and -0.08302 and -0.1718 and -0.749 and the “cAMP accumulation response, individual replicate values of the concentration-response curve” value (hTA1 T194A; M = -10.522) was -0.4787 and -1.692 and -1.557 and -1.303 (2×) and -1.5 and -0.7934 and -0.6602 and -0.6158. The “cAMP accumulation response, individual replicate values of the concentration-response curve” value (hTA1 T194A; M = -11) was -1.4224 (2×) and -0.7483 and -0.9074 and -0.7099 and -0.4382 and -0.8378 and 0.05017, the “cAMP accumulation response, individual replicate values of the concentration-response curve” value (hTA1 T194A; M = -11.522) was 0.4651 and -1.018 and -1.153 and -0.5123 and -0.7099 (2×) and -0.4382 and -1.015 and -0.6602 and the “cAMP accumulation response, individual replicate values of the concentration-response curve” value (hTA1 T194A; M = -12) was -0.07421 (2×) and -1.962 and -1.698 and -1.105 and -0.1274 and -0.6602 and -0.1718. For the same molecule, the “cAMP accumulation response, individual replicate values of the concentration-response curve” value (hTA1 T194A; M = -12.522) was 0.0606 and 1.004 and 0.8695 and -0.9074 and -0.7099 and -0.3148 and -0.1718 and -0.305 and 0.1834 and the “ΔEmax values (each mutant value - WT average)” value (hTA1 T194A; minus WT average) was 0.

From publication PMC10762035, “Molecular basis of human trace amine-associated receptor 1 activation” (Nature Communications, 2024)
